Molecules are shown by their SMILES.

Holding throughout (assay type): functional
In assay [1] the test system is MDA-MB-468. Description: Growth inhibition of human MDA-MB-468 cells assessed as cell growth at 0.01 uM incubated for 48 hrs by sulforhodamine B assay relative to control. The following applies: MDA-MB-468, 48 h, read-out: Activity. A general note: The SRB assay estimates cell density from bound dye.
Assay [2] deals with MDA-MB-468. Briefly: Growth inhibition of human MDA-MB-468 cells assessed as cell growth at 30 uM incubated for 48 hrs by sulforhodamine B assay relative to control. The following applies: MDA-MB-468, 48 h, read-out: Activity.
Assay [3] has as its system MDA-MB-468. Description: Growth inhibition of human MDA-MB-468 cells assessed as cell growth at 0.003 uM incubated for 48 hrs by sulforhodamine B assay relative to control. The following applies: MDA-MB-468, 48 h, read-out: Activity.
The test system of the next assay is NCI-H460. Briefly: Growth inhibition of human NCI-H460 cells assessed as cell growth at 50 uM incubated for 48 hrs by sulforhodamine B assay relative to control. The conditions noted are these: NCI-H460, 48 h, read-out: Activity.
Assay [4] deals with SW-620. Briefly: Growth inhibition of human SW620 cells assessed as cell growth at 5 uM incubated for 48 hrs by sulforhodamine B assay relative to control. The conditions noted are these: SW-620, 48 h, read-out: Activity.
Another assay deals with A549. Description: Growth inhibition of human A549/ATCC cells assessed as cell growth at 0.05 uM incubated for 48 hrs by sulforhodamine B assay relative to control. The conditions noted are these: A549, 48 h, read-out: Activity.
The test system of a further assay is A498. Description: Growth inhibition of human A498 cells assessed as cell growth at 0.005 uM incubated for 48 hrs by sulforhodamine B assay relative to control. The following applies: A498, 48 h, read-out: Activity.
Another assay relates to HCT-116. Description: Growth inhibition of human HCT116 cells assessed as cell growth at 5 uM incubated for 48 hrs by sulforhodamine B assay relative to control. The conditions noted are these: HCT-116, 48 h, read-out: Activity.
For a further assay, the system named is Malme-3M. Description: Growth inhibition of human MALME-3M cells assessed as cell growth at 50 uM incubated for 48 hrs by sulforhodamine B assay relative to control. The following applies: read-out: Activity.
The test system of assay [5] is SK-OV-3. Briefly: Growth inhibition of human SKOV3 cells assessed as cell growth at 5 uM incubated for 48 hrs by sulforhodamine B assay relative to control. The conditions noted are these: SK-OV-3, 48 h, read-out: Activity.
Assay [6] deals with PC-3. Description: Growth inhibition of human PC3 cells assessed as cell growth at 0.005 uM incubated for 48 hrs by sulforhodamine B assay relative to control. The following applies: PC-3, 48 h, read-out: Activity.
The test system of assay [7] is HL-60(TB). Description: Growth inhibition of human HL-60(TB) cells assessed as cell growth at 5 uM incubated for 48 hrs by sulforhodamine B assay relative to control. The conditions noted are these: HL-60, 48 h, read-out: Activity.
For another assay, the system named is KM12. Briefly: Growth inhibition of human KM12 cells assessed as cell growth at 5 uM incubated for 48 hrs by sulforhodamine B assay relative to control. The following applies: KM12, 48 h, read-out: Activity.
For assay [8], the system named is COLO 205. Description: Growth inhibition of human COLO205 cells assessed as cell growth at 0.5 uM incubated for 48 hrs by sulforhodamine B assay relative to control. The conditions noted are these: COLO 205, 48 h, read-out: Activity.
For the next assay, the system named is HCT-15. Description: Growth inhibition of human HCT15 cells assessed as cell growth at 5 uM incubated for 48 hrs by sulforhodamine B assay relative to control. The following applies: HCT-15, 48 h, read-out: Activity.
Another assay concerns SK-MEL-28. Description: Growth inhibition of human SK-MEL-28 cells assessed as cell growth at 5 uM incubated for 48 hrs by sulforhodamine B assay relative to control. The conditions noted are these: SK-MEL-28, 48 h, read-out: Activity.
The subject of another assay is NCI-H322M. Description: Growth inhibition of human NCI-H322M cells assessed as cell growth at 0.05 uM incubated for 48 hrs by sulforhodamine B assay relative to control. The following applies: read-out: Activity.
A further assay concerns SR. Briefly: Growth inhibition of human SR cells assessed as cell growth at 0.005 uM incubated for 48 hrs by sulforhodamine B assay relative to control. The following applies: read-out: Activity.
The subject of assay [9] is SK-OV-3. Briefly: Growth inhibition of human SKOV3 cells assessed as cell growth at 0.05 uM incubated for 48 hrs by sulforhodamine B assay relative to control. The conditions noted are these: SK-OV-3, 48 h, read-out: Activity.
Assay [10] concerns SW-620. Briefly: Growth inhibition of human SW620 cells assessed as cell growth at 0.005 uM incubated for 48 hrs by sulforhodamine B assay relative to control. The conditions noted are these: SW-620, 48 h, read-out: Activity.
The next assay deals with HCC 2998. Description: Growth inhibition of human HCC2998 cells assessed as cell growth at 5 uM incubated for 48 hrs by sulforhodamine B assay relative to control. The conditions noted are these: HCC 2998, 48 h, read-out: Activity.
The subject of assay [11] is HL-60(TB). Briefly: Growth inhibition of human HL-60(TB) cells assessed as cell growth at 0.005 uM incubated for 48 hrs by sulforhodamine B assay relative to control. The conditions noted are these: HL-60, 48 h, read-out: Activity.
The subject of assay [12] is COLO 205. Briefly: Growth inhibition of human COLO205 cells assessed as cell growth at 50 uM incubated for 48 hrs by sulforhodamine B assay relative to control. The conditions noted are these: COLO 205, 48 h, read-out: Activity.
In assay [13] the test system is PC-3. Briefly: Growth inhibition of human PC3 cells assessed as cell growth at 50 uM incubated for 48 hrs by sulforhodamine B assay relative to control. The conditions noted are these: PC-3, 48 h, read-out: Activity.
For a further assay, the system named is TK-10. Briefly: Growth inhibition of human TK10 cells assessed as cell growth at 5 uM incubated for 48 hrs by sulforhodamine B assay relative to control. The conditions noted are these: TK-10, 48 h, read-out: Activity.
The subject of assay [14] is LOX IMVI. Description: Growth inhibition of human LOXIMVI cells assessed as cell growth at 0.05 uM incubated for 48 hrs by sulforhodamine B assay relative to control. The following applies: read-out: Activity.
In another assay the test system is NCI/ADR-RES. Description: Growth inhibition of human NCI/ADR-RES cells assessed as cell growth at 5 uM incubated for 48 hrs by sulforhodamine B assay relative to control. The following applies: read-out: Activity.
The subject of a further assay is UACC-257. Briefly: Growth inhibition of human UACC257 cells assessed as cell growth at 0.5 uM incubated for 48 hrs by sulforhodamine B assay relative to control. The conditions noted are these: UACC-257, 48 h, read-out: Activity.
The subject of another assay is OVCAR-8. Description: Growth inhibition of human OVCAR8 cells assessed as cell growth at 0.05 uM incubated for 48 hrs by sulforhodamine B assay relative to control. The conditions noted are these: OVCAR-8, 48 h, read-out: Activity.
Assay [15] deals with SW-620. Briefly: Growth inhibition of human SW620 cells assessed as cell growth at 50 uM incubated for 48 hrs by sulforhodamine B assay relative to control. The conditions noted are these: SW-620, 48 h, read-out: Activity.
The subject of a further assay is SF-295. Briefly: Growth inhibition of human SF295 cells assessed as cell growth at 0.05 uM incubated for 48 hrs by sulforhodamine B assay relative to control. The following applies: SF-295, 48 h, read-out: Activity.
Another assay concerns RXF 393. Description: Growth inhibition of human RXF393 cells assessed as cell growth at 0.005 uM incubated for 48 hrs by sulforhodamine B assay relative to control. The conditions noted are these: RXF 393, 48 h, read-out: Activity.
In assay [16] the test system is SW-620. Description: Growth inhibition of human SW620 cells assessed as cell growth at 0.05 uM incubated for 48 hrs by sulforhodamine B assay relative to control. The conditions noted are these: SW-620, 48 h, read-out: Activity.
The next assay concerns EKVX. Briefly: Growth inhibition of human EKVX cells assessed as cell growth at 0.3 uM incubated for 48 hrs by sulforhodamine B assay relative to control. The following applies: read-out: Activity.
The test system of assay [17] is LOX IMVI. Description: Growth inhibition of human LOXIMVI cells assessed as cell growth at 0.003 uM incubated for 48 hrs by sulforhodamine B assay relative to control. The following applies: read-out: Activity.

For `COc1cc2cc(Oc3ccc(NC(=O)Nc4cc(C(F)(F)F)cc(C(F)(F)F)c4)cc3)c(C)nc2cc1OC`, in the assay on MDA-MB-468 [1], the growth at 0.01 µM was 101%.

As for `Cc1nc2cc(O)c(O)cc2cc1Oc1ccc(NC(=O)Nc2ccc(Cl)c(Cl)c2)cc1`, in the assay on MDA-MB-468 [2], the growth at 30 µM was -34%. For the same molecule, the growth at 0.003 µM in the assay with MDA-MB-468 [3] amounted to 100%.

With `COc1cc2cc(Oc3ccc(NC(=O)Nc4cccc(C(F)(F)F)c4)cc3)c(C)nc2cc1OC`, the growth at 50 µM in the assay on NCI-H460 was -60%; with Malme-3M it was -60%; in the assay with COLO 205 [12] it was -88%; in the assay on PC-3 [13] it was -65%; in the assay on SW-620 [15], -37%. Besides, the growth at 5 µM is 20% in the assay with SW-620 [4]; 6% in the assay with HCT-116; 18% in the assay on SK-OV-3 [5]; -13% in the assay with HL-60(TB) [7]; 5% in the assay with KM12; 18% in the assay on HCT-15. In addition, the growth at 5 µM with SK-MEL-28 was 21%; in the assay with HCC 2998 it was 26%; in the assay on TK-10, 19%; with NCI/ADR-RES, 11%. The growth at 0.05 µM with A549 was 96%; in the assay on NCI-H322M, 96%; in the assay on SK-OV-3 [9] it was 95%; in the assay with LOX IMVI [14] it was 96%; in the assay with OVCAR-8, 103%; in the assay on SF-295 it was 91%. Also, the growth at 0.05 µM in the assay with SW-620 [16] amounted to 98%. Also, the growth at 0.005 µM came out at 113% with A498; 94% in the assay with PC-3 [6]; 93% with SR; 99% with SW-620 [10]; 104% in the assay with HL-60(TB) [11]; 94% with RXF 393. Moreover, the growth at 0.5 µM with COLO 205 [8] worked out at 102%; in the assay with UACC-257 it was 82%.

With `COc1cc2cc(Oc3ccc(NC(=O)Nc4ccc(Cl)c(C(F)(F)F)c4)cc3)c(C)nc2cc1OC`, the growth at 0.3 µM in the assay with EKVX was found to be 94%. In addition, in the assay on LOX IMVI [17], the growth at 0.003 µM was determined as 100%.

Source of the values: ChEMBL document CHEMBL3994622, “Design and synthesis of new RAF kinase-inhibiting antiproliferative quinoline derivatives. Part 2: Diarylurea derivatives” (Eur J Med Chem, 2017).
